# Assay results from publication PMC10895676, “Antiviral Activity of Lipophilic Nucleoside Tetraphosphate Compounds” (Journal of Medicinal Chemistry, 2024).
# “Also recorded” adds a separate entry of the source.
# Assays:
# HIV-2 (ROD) [1] = assay: Anti-HIV replication assay, HIV-2 (ROD) in thymidine kinase-deficient CEM/TK– cells; format: cell-based; conditions: Human immunodeficiency virus 2, CEM-TK(-), read-out: CEM/TK– HIV-2 (ROD) EC50
# Description: (§1) Inhibition of HIV-1(HE)- and HIV-2(ROD)-induced cytopathogenicity in wild-type CEM/0 CEM CD4^+ T-cells and thymidine kinase-deficient CEM/TK^– cell cultures was measured in microtiter 96-well plates containing ∼3 × 10^5 CEM cells/mL infected with 100 CCID50 of HIV per milliliter and containing appropriate dilutions of the test compounds. After 4–5 days of incubation at 37 °C in a CO2-controlled humidified atmosphere, virus-induced cellular effects and syncytia cell formation were examined microscopically.
# HIV-1 (HE) = assay: Anti-HIV replication assay, HIV-1 (HE) in wild-type CEM/0 cells; format: cell-based; conditions: Human immunodeficiency virus 1, CCRF-CEM, read-out: HIV-1 (HE) EC50
# Description: as §1, with “microscopically. The EC50 (50% effective concentration) was defined as the compound concentration required to inhibit HIV-induced giant cell formation by 50%.” for “microscopically.”
# [2] = Chemical hydrolysis in aqueous buffers (PBS pH 7.3 / 8.0, citrate buffer pH 2.0), RP18-HPLC; format: physicochemical; conditions: phosphate buffered saline; 25 mM PBS, pH 7.3, 37 °C; read-out: PBS pH 7.3 t1/2 (converted)
# Description: All metabolite mixtures were analyzed and quantified by means of analytical RP18-HPLC (UV detection).
# The solution was incubated at 37 °C in a thermomixer. […] for each extraction and stored at −30 °C. When testing, samples were warmed up to room temperature, and 25 or 20 μL of the liquid was taken and injected into the analytical RP-18-HPLC instrument. Further aliquots were taken for monitoring the kinetic hydrolysis.
# 5.88 g of citric acid and 3.58 g of NaCl were dissolved in 82 mL of hydrochloric acid (0.1 mol/L). Then, sodium hydroxide was added to adjust the pH to 2.0.
# [3] = Cytotoxicity, inhibition of CEM cell proliferation; format: cell-based; conditions: human, CEM cells (CD4+ T-cells), read-out: toxicity CC50
# [4] = Cytotoxicity, inhibition of CEM/TK– cell proliferation; format: cell-based; conditions: human, CEM/TK– cells (CD4+ T-cells), read-out: toxicity CC50
# HIV-2 (ROD) [5] = assay: Anti-HIV replication assay, HIV-2 (ROD) in wild-type CEM/0 cells; format: cell-based; conditions: Human immunodeficiency virus 2, CCRF-CEM, read-out: HIV-2 (ROD) EC50
# Description: as §1
# human DNA polymerase β = biological target: T1, human DNA polymerase β (Homo sapiens, UniProt P06746); assay: Primer extension assay using human DNA polymerase β; format: biochemical; conditions: 60 min, 2 U, 37 °C
# T1 construct: purchased Chimerx
# Source text: Encouraged by the previously obtained results that γ-phosphate-modified-d4TDPs 3, γ-monoalkylated d4TTP derivatives as well as d4TDP were accepted as substrates by HIV-RT,[49],[50],[55],[59]−[61] δ-dialkylated d4T tetraphosphate analogues 4,5, δ-monoalkylated d4T tetraphosphate analogues 20 and 24 and d4T4P were investigated in primer extension assays in the presence of HIV-RT or the three different human DNA polymerases α, β and γ. D4TTP (for the compounds 4–9) and the natural thymidine triphosphate (TTP) were used as reference compounds.
# (§2) Figure 6 Primer extension assay using HIV-RT (A), human polymerases α (B), β (C), and γ (D). (Figure 6A). Primer extension assay using HIV-RT (30 min, 6U). Lane 1: (+) dATP, dCTP, dGTP, and TTP with HIV-RT. Lane 2: (−) dATP, dCTP, dGTP, and TTP without HIV-RT. Lane 3: TTP. […] Lane 5: δ-(C4; C18)-d4T4P 4d. […] Lane 7: δ-(C18)-d4T4P 20. Lane 8: δ-C-(C18)-d4T4P 24. Lane 9: d4T4P. Lane 10: d4TTP. Lane 11: d4TDP. HIV-RT assay reaction conditions: 50 mM Tris–HCl (pH 8.6), 10 mM MgCl2, 40 mM KCl, 250 μM dNTPs, HIV-RT (6 U), 0.20 μM DNA hybrid, primer-template-hybrid 0.32 mM in a reaction volume of 10 μL, incubated at 37 °C for 0.5 h, 80 °C for 7 min. Primer extension assays: 50 mA, 45 w for 4 h. (Figure 6B). For human DNA polymerase α assay (60 min, 2 U): Lane 1: (+) dATP, dCTP, dGTP, and TTP with human polymerase α. Lane 2: (−) dATP, dCTP, dGTP, and TTP without human polymerase α. Lane 3: TTP. […] Lane 5: δ-(C4; C18)-d4T4P 4d. […] Lane 7: δ-(C18)-d4T4P 20. Lane 8: δ-C-(C18)-d4T4P 24. Lane 9: d4T4P. Lane 10: d4TTP. Human DNA polymerase α assay conditions: 60 mM Tris–HCl (pH 8), 5 mM Mg(OAc)2, 100 mM KCl, 1.0 mM dithiothreitol, 0.1 mM spermine, 0.01% (w/v) bovine serum albumin, 250 μM dNTPs, 2 U human polymerase α, 0.20 μM DNA hybrid, and primer-template-hybrid 0.32 mM in a reaction volume of 10 μL, incubated at 37 °C for 1 h, 80 °C for 7 min. Primer extension assays: 50 mA, 45 w for 3 h. (Figure 6C). For human DNA polymerase β assay (60 min, 2 U): Lane 1: (+) dATP, dCTP, dGTP, and TTP with human polymerase β. Lane 2: (−) dATP, dCTP, dGTP, and TTP without human polymerase β. Lane 3: TTP. […] Lane 5: δ-(C4; C18)-d4T4P 4d. […] Lane 7: δ-(C18)-d4T4P 20. Lane 8: δ-C-(C18)-d4T4P 24. Lane 9: d4T4P. Lane 10: d4TTP. Human DNA polymerase β assay conditions: 50 mM Tris–HCl (pH 8.7), 10 mM Mg(OAc)2, 100 mM KCl, 1.0 mM dithiothreitol, 0.1 mM spermine, 0.01% (w/v) bovine serum albumin, 15% glycerol, 250 μM dNTPs, 2 U human DNA polymerase β, 0.20 μM DNA hybrid, and primer-template-hybrid 0.32 mM in a reaction volume of 10 μL, incubated at 37 °C for 1 h, 80 °C for 7 min. Primer extension assays: 50 mA, 45 w for 3 h. (Figure 6D), For the human DNA polymerase γ assay (120 min, 2 U): Lane 1: (+) dATP, dCTP, dGTP, and TTP with human polymerase γ. Lane 2: (−) dATP, dCTP, dGTP, and TTP without human polymerase γ. Lane 3: TTP. […] Lane 5: δ-(C4; C18)-d4T4P 4d. […] Lane 7: δ-(C18)-d4T4P 20. Lane 8: δ-C-(C18)-d4T4P 24. Lane 9: d4T4P. Lane 10: d4TTP. Human polymerase γ assay conditions: 60 mM Tris–HCl (pH 8), 5 mM Mg(OAc)2, 1.0 mM dithiothreitol, 0.1 mM spermine, 0.01% (w/v) bovine serum albumin, 250 μM dNTPs, 2 U human polymerase γ, 0.5 μM MnCl2, 0.20 μM DNA hybrid, primer-template-hybrid 0.32 mM in a reaction volume of 10 μL, incubated at 37 °C for 2 h, 80 °C for 7 min. Primer extension assays: 50 mA, 45 w for 3 h.
# HIV-RT and human polymerases α, β, and γ were bought from Roboklon and Chimerx. The fluorescent-labeled primer and template were obtained from Metabion. […]
# HIV-RT = biological target: T2, HIV-RT (Human immunodeficiency virus type 1 group M subtype B, UniProt P03366); assay: Primer extension assay using HIV-RT; format: biochemical; conditions: 30 min, 6 U HIV-RT, 37 °C
# T2 construct: HIV-RT HIV reverse transcriptase; purchased Roboklon
# Description: as §2
# HIV-RT and human polymerases α, β, and γ were bought from Roboklon and Chimerx. The fluorescent-labeled primer and template were obtained from Metabion.
# For the annealing of the primer/template mixture, 40 μL of the 10 μM primer and 60 μL of the 10 μM template were incubated for 5 min at 95 °C. Then, for optimal annealing, the temperature was reduced over a period of 2 h to 20 °C and incubated again for 20 min at 20 °C.
# For the primer extension, the reaction mixture was incubated for 30 min for the HIV-RT, 60 min for the human DNA polymerase α, and 120 min for the human DNA polymerases β and γ at 37 °C, followed by 7 min at 80 °C.
Compound,EC50 (HIV-2 (ROD) [1]) [µM],EC50 (HIV-1 (HE)) [µM],half-life at 1.9 mM [2] [h],CC50 [3] [µM],CC50 [4] [µM],EC50 (HIV-2 (ROD) [5]) [µM],substrate for human DNA polymerase β (primer extension) (human DNA polymerase β),substrate for HIV-RT (primer extension) (HIV-RT)
"CCCCOP(=O)(OCCCC)OP(=O)(O)OP(=O)(O)OP(=O)(O)OC[C@@H]1C=C[C@H](n2cc(C)c(=O)[nH]c2=O)O1 [4a, δ-(Alkyl-C4; alkyl-C4)-d4T4P]",14.8 ± 2.8,0.22 ± 0.13,167,> 100,> 100,0.16 ± 0.04,substrate,
"Cc1cn([C@H]2C=C[C@@H](COP(=O)(O)OP(=O)(O)OP(=O)(O)O)O2)c(=O)[nH]c1=O [d4TTP, d4T triphosphate, reference compound]",,,,,,,substrate,incorporation of d4TMP was detected; also recorded: good substrates
"Cc1cn(C2C=CC(COP(=O)(O)OP(=O)(O)O)O2)c(=O)[nH]c1=O (stereo not shown) [d4TDP, reference compound]",,,,,,,,good substrates
